Calls of active or inactive are those of the source.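 How the source made its calls: active means inhibition of at least 30% at one or more tested concentrations; inactive means inhibition below 30% at every dose.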
Test: antiviral protection against BTV-induced cell death – arbovirus, BSR cells, confirmation (AID 1250)
Conditions: BSR cells, Bluetongue virus CPE, ATP luminescence, 72 h; at 20 µM (top of the series)

Row | Compound | CPE inhibition
1 | COCC(C)n1c(SCc2nc3ccccc3c(=O)[nH]2)nc2ccccc2c1=O (stereo not drawn) | 29.9% (inactive)
2 | O=C(Nc1ccccc1C(=O)O)c1ccc2ccccc2n1 | 16.2% (inactive)
3 | CCn1c(COc2cccc3ccccc23)nnc1SCC(=O)OC1CCCCC1 | 2.2% (inactive)
4 | N#Cc1c(SCc2cccc(Cl)c2)sc(C(=O)c2ccccc2)c1N | 25.2% (inactive)
5 | CN1CCN(c2ccc(/C=C3\C(=O)NC(=S)N(c4cccc(Br)c4)C3=O)o2)CC1 | 14.7% (inactive)
6 | Cc1cc(C)c(NC(=O)c2oc3ccccc3c2COc2ccccc2)c(C)c1 | 5.41% (inactive)
7 | O=c1/c(=C/c2ccc(O)cc2)sc2n1CCCN=2 | 1.41% (inactive)
8 | CC(=O)NCC1=C(NC(C)=O)C2CC1C(C)(C)C2C (stereo not drawn) | 2.41% (inactive)
9 | O=C(CSCc1ccc(Cl)cc1)Nc1cccc(C(=O)Nc2ccccc2C(=O)O)c1 | 23.5% (inactive)
10 | CSc1nsc2nc(=O)c(/C=C3\C(C)=Nc4ccccc43)c(N)n12 | 23% (inactive)
11 | Cc1[nH]nc2c1-c1nc3ccccc3nc1C(C)(C)C2 | 15.7% (inactive)
12 | Nc1[nH]nc2nc(NCc3ccccc3)c3c(c12)CCN(Cc1ccccc1)C3 | 10.8% (inactive)
13 | CC(C)c1ccc(C2=C(O)c3ccccc3C(=O)C2=O)cc1 | 14.3% (inactive)
14 | COc1cc(/C=C/C(=O)Nc2nnc(C(C)(C)C)s2)cc(OC)c1OC | 11.5% (inactive)
15 | O=c1oc(/C=C/c2ccco2)nc2sc3c(c12)CCC3 | 21.9% (inactive)
16 | COCCCNCC1C(Oc2ccc(Cl)cc2)C(=O)N1c1ccccc1C (stereo not drawn) | 14.4% (inactive)
17 | COC(=O)c1c(SCc2ccc(C#N)cc2)nc(=O)[nH]c1C | 4.66% (inactive)
18 | CC1=C(C#N)C(=O)NC(=O)/C1=C\c1ccc(-c2cc(C)c(C)cc2[N+](=O)[O-])o1 | 4.65% (inactive)
19 | CC(C)S(=O)(=O)C1=NSC2=NC(=O)/C(=C\c3ccc(-c4cccc(C(=O)O)c4)o3)C(=N)N21 | 24.2% (inactive)

Row | Compound | CPE inhibition
20 | Cc1cccc(CSc2nn3c(=O)c(C)nnc3s2)c1 | 19.1% (inactive)
21 | COc1ccccc1/C=C/C=C1N=C(/C=C/c2ccc(Cl)cc2)OC/1=O | 25.2% (inactive)
22 | Cc1ccc(S(=O)(=O)Oc2ccc(C)cc2/C=N/N=C2\NC(=O)C(C)S2)cc1 (stereo not drawn) | 25.2% (inactive)
23 | CCCCN(CC)C(=O)CSc1nc2c(sc(=S)n2-c2ccc(OCC)cc2)c(=O)[nH]1 | 18.4% (inactive)
24 | CCOC(=O)CSc1nc2c(sc(=S)n2-c2ccc(OCC)cc2)c(=O)[nH]1 | 19.1% (inactive)
25 | O=C(NNC(=O)c1cccs1)c1ccc([N+](=O)[O-])cc1 | 4.62% (inactive)
26 | CSC1=NSC2=NC(=O)/C(=C\c3cccs3)C(=N)N12 | 16% (inactive)
27 | O=C(O)/C(=C\c1ccc(-c2ccc(F)cc2)o1)c1ccccc1 | 24.5% (inactive)
28 | Cc1ccc2nc(NC(=O)C3CCCN(S(=O)(=O)c4cnc[nH]4)C3)sc2c1 (stereo not drawn) | 22.3% (inactive)
29 | CCSc1nc2c(sc3nc(C)cc(C)c32)c(=O)[nH]1 | 18% (inactive)
30 | Cc1ccc(Nc2nc(N)c([N+](=O)[O-])c(N3CCOCC3)n2)cc1C | 11.3% (inactive)
31 | COC(=O)c1sccc1NC(=O)CSc1ccccc1NS(=O)(=O)c1ccc(Br)cc1 | 18.5% (inactive)
32 | CCc1ccc(CCC(=O)Nc2ccccc2C(=O)O)o1 | 21.9% (inactive)
33 | Cc1ccc(S(=O)(=O)N2CCN(c3ccnc4cc(Cl)ccc34)CC2)cc1C | 10.9% (inactive)
34 | Oc1ccc(-c2n[nH]c(=S)n2-c2ccc3c(c2)OCCO3)c(O)c1 | 18.1% (inactive)
35 | Cc1ccc2c(c1)c(Sc1ccccc1)c(CC(=O)O)n2C | -0.49% (inactive)
36 | COC(=O)c1ccccc1N/C=C/C(=O)c1ccc(Br)cc1 | 28.6% (inactive)
37 | COc1cccc(C2=CC(c3ccc(C)cc3)n3ncnc3N2)c1 (stereo not drawn) | 22.6% (inactive)
38 | O=C(O)c1ccc2[nH]c3c(c2c1)CSCC3 | 2.13% (inactive)
